Measured values reported in patent US20160175249A1, “Liposomes Containing Oligopeptide Fragments of Myelin Basic Protein, a Pharmaceutical Composition and a Method for Treatment of Multiple Sclerosis” (LIPOXEN TECHNOLOGIES LIMITED, priority 2009, published 2016).

Assays:
anti-MBP autoantibody = test: Serum anti-MBP autoantibody titer in EAE DA rats (Example 11); format: in vivo; conditions: EAE DA rats treated as in Example 10
Procedure: To determine anti-MBP autoantibody binding patters in sera from the EAE-induced rodent models and human MS patients, ELISA experiments were performed as follows. Microtiter plates (MaxiSorp-Nunc) were coated with 50 μl of a 10 μg/ml MBP solution or recombinant MBP peptides in 100 mM carbonate/bicarbonate buffer pH 9.0, in odd column wells. Plates were sealed with ELISA plate sealer (Costar) and incubated at 4° C. overnight and then washed (300 μl/well) three times with phosphate-buffered saline (PBS) containing 0.15% Tween-20. All the wells were then blocked with 250 μl 2% bovine serum albumin (BSA) (Sigma) in carbonate/bicarbonate buffer pH 9.0 and incubated for 1 hr at 37° C. The plates were washed with PBS containing 0.15% Tween-20. Serum antibodies were diluted in PBS containing 0.15% Tween-20 and 0.5% BSA at the final dilution of 1:1000-1:50000, and 50 μl of the diluted sample was added to each well of the plate. Rat anti-MBP monoclonal antibody (ab7349, Abcam) was used as control. […] The OD450 values were measured using a microplate reader Varioscan (Thermo, USA).
To investigate the immunological status of EAE induced DA rats after treatment with liposomally encapsulated MBP peptides, serum isolated from rats treated as described in Example 10 was analyzed for anti-MBP antibodies and CNS cytokine staining (FIG. 5). […]

EAE-induced DA rats = test: EAE-induced DA rat model, paralysis score and mortality (DA-EAE-28-05, Example 14); format: in vivo; conditions: versus water control (Group 1); days 1-4 post-treatment; daily s.c., 6 total; n=6
Procedure: Each of the four MBP peptide formulations being evaluated were provided as lyophilized powders and stored at 4° C. Each formulation was rehydrated in water for injection according to Table 13. Copaxone (Teva LTD) was diluted with Saline to a final concentration of 720 μg/mL. Each subject animal was administered the test formulation for 6 consecutive days by subcutaneous injection.
8-9 week old Dark Agouti (DA) female rats (Harlan Laboratories, Inc.), weighing between 110 and 145 grams were used as the test subjects. The health status of the animals used in this study was examined on arrival. Only animals in good health were acclimatized to laboratory conditions and were used in the study. Animals were provided food ad libitum and free access to drinking water. Animals were housed in a controlled environment at between 20° C. and 24° C. with a relative humidity of 30-70% and a 12 hr light/12 hr dark cycle. Animals were randomly assigned to their respective test group. […]
The rats were evaluated up daily starting 24 hours after immunization. […] The animals were maintained and evaluated until day 28th post EAE-induction. […]
Animals were observed individually and clinical signs were recorded once daily during all study periods. […] The body weight of each animals was determined daily during all study periods.

In the case of glatiramer acetate [copaxone], the “Serum anti-MBP Antibody titer” value (anti-MBP autoantibody) is reported as 1.0 ± 0.1 and the paralysis score (EAE-induced DA rats) is reported as “non-statistically significant difference (tendency)”.
